In one data set the target is T1, LBAT (Homo sapiens, UniProt Q14973).
T1 construct: expressed in transfected cells; host or cells: CHO cells
Briefly: In vitro uptake by CHO cells transfected with LBAT, evaluated by LC-MS/MS. In kind it is cell-based. The note with it: 0.06 to 1000 μM, 10 min. Here is the method: (§1) Active transport of (4) by the bile acid transport system was evaluated in vitro by incubation of (4) or glycocholate (control substrate) with untransfected CHO K1 cells or CHO cells transfected with either IBAT or LBAT. Cells (10^5 cells/mL) were incubated in 96 well plates with varying concentrations (0.06 to 1000 μM) of (4) or glycocholate for 10 min. Cells were then washed with Hank's Balanced Salt Solution (HBSS) and lysed and extracted by addition of 100 μL of water followed by sonication. Concentrations of (4) or glycocholate in cell extracts were determined by direct injection onto an API 2000 LC/MS/MS equipped with an Agilent 1100 binary pump and autosampler. Separation was achieved using a Keystone BDS Hypersil 2×50 mm column heated to 45° C. during the analysis. The mobile phases were: 0.1% formic acid in water (A) and 0.1% formic acid in acetonitrile (B). The gradient condition was: 5% B for 1 min, increasing to 90% B in 0.2 min, maintained for 2.8 min and returning to 5% B for 2 min. A TurboIonSpray source was used on the API 2000. The analysis was performed in the positive ion mode and MRM transitions of 466/412 and 562/154 were used in the analysis of glycocholate and (4), respectively. Ten microliters of the cell extracts were injected. Peaks were integrated using Analyst quantitation software. […]

A short description of another data set: in vivo. The note with it: male, Sprague-Dawley, rat, po, 85.25 mg/kg. As to the method:
(§2) The pharmacokinetics of the prodrug (4) were examined in rats. Three groups of four male Sprague-Dawley rats (approx 200 g) with jugular cannulae each received one of the following treatments: A) a single bolus intravenous injection of gabapentin (25 mg/kg, as a solution in water); B) a single oral dose of gabapentin (25 mg/kg, as a solution in water) administered by oral gavage; C) a single oral dose of (4) (85.25 mg/kg, as a solution in water) administered by oral gavage. Animals were fasted overnight prior to dosing and until 4 hours post-dosing. Serial blood samples were obtained over 24 hours following dosing and blood was processed for plasma by centrifugation. Plasma samples were stored at −80° C. until analyzed. Concentrations of (4) or gabapentin in plasma samples were determined by LC/MS/MS as described in Example 35. Plasma (50 μL) was precipitated by addition of […] of methanol and supernatent was injected directly onto the LC/MS/MS system. The method was linear for gabapentin over the concentration range 0.001 to 20 ng/mL and for (4) over the concentration range 0.01 to 10 ng/mL.
as §2, with “prodrug Cholyl-Phe-Gabapentin (7g)” for “prodrug (4)”, “of (7g) (103.5” for “of (4) (85.25”, “of (7g)” for “of (4)”, “or (2)” for “or gabapentin”, “described above.” for “described in Example 35.”, “system.” for “system. The method was linear for gabapentin over the concentration range 0.001 to 20 ng/mL and for (4) over the concentration range 0.01 to 10 ng/mL.”

For the next data set, the target named is Cholylglycine Hydrolase (Clostridium perfringens, UniProt P54965). The note with it: compared with plasma, liver or intestine.
The target of data set [1] is T2, IBAT (Homo sapiens, UniProt Q12908). Briefly: Inhibition of radiolabeled taurocholate uptake in IBAT-transfected CHO cells. In kind it is cell-based. Further details: expressed in transfected cells; host or cells: CHO cells. The note with it: radiolabeled competition assay in transporter-expressing CHO cells. Here is the method: CHO cells transfected with either the IBAT or LBAT transporter were seeded into 96-well microtiter plates at 100,000 cells/well in 100 μL DMEM containing 10% serum, glutamine and Penstrep. After overnight incubation the media was removed and test compound (25 μL) added at 2× the final desired concentration. Tritiated taurocholate (50,000 CPM/well) was diluted with cold substrate to a final concentration of 5 μM and 25 μL/well of this mixture was added to the plate. After incubating for 1 h at room temperature the solution was removed and the plate washed 4× with PBS at 4° C. 200 μL/well of scintillant is added and the plate then read in a Wallac microbeta counter. The inhibition data is processed by standard methods to calculate an inhibition constant Ki for the test compound.

Data set [2] addresses T2, IBAT. Description: In vitro uptake by CHO cells transfected with IBAT, evaluated by LC-MS/MS. Conditions: 0.06 to 1000 μM, 10 min. In kind it is cell-based. On the set-up: expressed in transfected cells; host or cells: CHO cells. As to the method: as §1

As a reminder, the half-life is the time needed for the level to fall by half in the phase considered. Lower therefore signals rapid decline. A word on the IC50: it is the midpoint of a concentration-inhibition curve. The low end stands for higher potency, the high end for lower potency.

T2 sequence (Q12908 whole entry): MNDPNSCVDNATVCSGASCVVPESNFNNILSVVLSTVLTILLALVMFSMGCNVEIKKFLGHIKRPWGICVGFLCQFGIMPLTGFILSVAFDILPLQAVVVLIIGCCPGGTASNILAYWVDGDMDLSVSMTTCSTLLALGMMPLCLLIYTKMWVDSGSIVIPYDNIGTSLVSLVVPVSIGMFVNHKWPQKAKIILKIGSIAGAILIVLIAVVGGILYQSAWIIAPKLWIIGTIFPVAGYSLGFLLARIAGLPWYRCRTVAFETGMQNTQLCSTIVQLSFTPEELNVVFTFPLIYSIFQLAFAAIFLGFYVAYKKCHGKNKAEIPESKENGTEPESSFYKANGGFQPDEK
T1 sequence (Q14973 whole entry): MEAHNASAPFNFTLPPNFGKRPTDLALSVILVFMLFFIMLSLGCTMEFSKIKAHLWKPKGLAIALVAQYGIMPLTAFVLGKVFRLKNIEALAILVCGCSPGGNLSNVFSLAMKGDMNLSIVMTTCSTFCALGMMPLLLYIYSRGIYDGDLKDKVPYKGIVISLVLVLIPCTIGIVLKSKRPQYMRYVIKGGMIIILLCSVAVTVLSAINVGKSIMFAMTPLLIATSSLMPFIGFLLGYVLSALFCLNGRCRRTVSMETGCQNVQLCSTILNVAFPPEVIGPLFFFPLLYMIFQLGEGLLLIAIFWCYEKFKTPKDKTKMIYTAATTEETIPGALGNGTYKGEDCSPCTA
Sequence of Cholylglycine Hydrolase (P54965 whole entry, looked up): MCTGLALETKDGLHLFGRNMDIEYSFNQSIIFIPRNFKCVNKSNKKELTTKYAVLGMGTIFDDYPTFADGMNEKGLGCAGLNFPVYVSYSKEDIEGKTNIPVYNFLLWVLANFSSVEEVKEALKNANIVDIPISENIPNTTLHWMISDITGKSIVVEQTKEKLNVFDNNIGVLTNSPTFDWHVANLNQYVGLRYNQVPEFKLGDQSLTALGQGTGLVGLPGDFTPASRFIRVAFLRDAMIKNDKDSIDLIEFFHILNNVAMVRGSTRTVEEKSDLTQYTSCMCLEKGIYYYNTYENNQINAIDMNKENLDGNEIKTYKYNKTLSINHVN

Take `CC(CCC(=O)NCC1(CC(=O)O)CCCCC1)C1CCC2C3C(O)CC4CC(O)CCC4(C)C3CC(O)C12C` (stereo not shown) [Compound (4)]: on LBAT, the “Active uptake by bile acid transport system” value is on record as “Active uptake”. For the same compound, in “in vivo”, the “concentrations of intact (4) in plasma sustained out to” value turned out to be 24 h, the half-life was above 12 h and the “time of maximum concentration of intact (4) in plasma” value is around 8 h. The “release of gabapentin catalyzed by cholylglycine hydrolase (in words)” value at Cholylglycine Hydrolase is “Substantially faster release”. At IBAT [1], this compound displayed an IC50 of 36 µM. In addition, the “Active uptake by bile acid transport system” value at IBAT [2] is listed as “Active uptake”.

These data come from patent publication US20050054559A1, “Compounds for sustained release of orally delivered drugs” (priority 2000, published 2005).
